# Starred links: 1 amine or outer side, 2 acyl side, 3 side chain; linkers in the order of their positions; H or OH if unused. Positions of bridges follow the written chain, without caps; N, C: chain ends. Non-standard residues stand in square brackets, D forms with d. Residues, ends and D or L forms follow the SMILES beside them. Groups on a side chain read outwards from the residue. *: point of attachment. KCOpipzaa = N6-(4-(carboxymethyl)piperazine-1-carbonyl)-L-lysine, O=C(NCCCC[C@H](N[*:1])C(=O)[*:2])N1CCN(CC(=O)[*:3])CC1; Piperazinyl(4-CH2COOH) = O=C(O)CN1CCN(*)CC1; 1Nal = N[C@@H](Cc1cccc2ccccc12)C(=O)O; Gly(NCH2CH2Ph) = O=C(O)CNCCc1ccccc1; 4Pal = N[C@@H](Cc1ccncc1)C(=O)O; CO = O=C([*:1])[*:2]
# B1: TGFb1_012 (peptide)
# peptide: {CH2CO}-F[1Nal]VVNV[4Pal]DD[Gly(NCH2CH2Ph)]V[1Nal]YH[KCOpipzaa]CG-NH2
# modifications: thioether N-16
# SMILES: CC(C)[C@@H]1NC(=O)CN(CCc2ccccc2)C(=O)[C@H](CC(=O)O)NC(=O)[C@H](CC(=O)O)NC(=O)[C@H](Cc2ccncc2)NC(=O)[C@H](C(C)C)NC(=O)[C@H](CC(N)=O)NC(=O)[C@H](C(C)C)NC(=O)[C@H](C(C)C)NC(=O)[C@H](Cc2cccc3ccccc23)NC(=O)[C@H](Cc2ccccc2)NC(=O)CSC[C@@H](C(=O)NCC(N)=O)NC(=O)[C@H](CCCCNC(=O)N2CCN(CC(=O)O)CC2)NC(=O)[C@H](Cc2c[nH]cn2)NC(=O)[C@H](Cc2ccc(O)cc2)NC(=O)[C@H](Cc2cccc3ccccc23)NC1=O
# notes: cyclic peptide; C-terminal G is a linker; also called TGF-β1_012
# Experiments:
# recombinant human TGF-β2 = biological target: T1, recombinant human TGF-β2 (Homo sapiens, UniProt P61812); assay: SBE reporter assay in SBE reporter-HEK293 cells, TGF-β2 stimulation; format: cell-based; conditions: FIG. 1
# T1 construct: purchased R&D systems
# T1 sequence (P61812 303-414 limits assumed): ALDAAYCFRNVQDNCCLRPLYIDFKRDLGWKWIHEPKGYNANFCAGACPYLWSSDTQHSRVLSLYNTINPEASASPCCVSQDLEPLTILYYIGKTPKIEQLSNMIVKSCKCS
# Method: In addition, the selectivity of each peptide for TGF-β isoforms (TGF-β1 and β2) is checked. For this purpose, the inhibitory activity against TGF-β1 and TGF-β2 was evaluated using the peptide consisting of the amino acid sequence set forth in SEQ ID NO: 13 synthesized in Example 2.
# SBE reporter-HEK293 cells were cultured in E-MEM (Wako) containing 10% FBS (Sigma). The cells were detached using Accutase (Innovative Cell Technologies), suspended in E-MEM containing 0.5% FBS, seeded onto a 96-well plate(s) at a concentration of 45,000 cells per well, and cultured overnight. The next day, the peptide was added and allowed to stand for 20 min, and recombinant human TGF-β1 (R&D systems) or recombinant human TGF-β2 (R&D systems) was then added at 0.13 nM and cultured for 18 hours.
# Thereafter, luciferase assay ONE-Glo reagent was added to each well and the plate was shaken for 5 min. A SpectraMax Paradigm multimode microplate reader (Molecular Devices) was then used for signal detection. The obtained signals were analyzed by GraphPad Prism. The inhibitory activity of the peptide was calculated while the maximum signal induced by TGF-β was set to 0% inhibition and no stimulation was set to 100% inhibition.
# recombinant human TGF-β1 [1] = biological target: T2, recombinant human TGF-β1 (Homo sapiens, UniProt P01137); assay: SBE reporter assay in SBE reporter-HEK293 cells, TGF-β1 stimulation; format: cell-based
# T2 construct: purchased R&D systems
# T2 sequence (P01137 279-390 limits assumed): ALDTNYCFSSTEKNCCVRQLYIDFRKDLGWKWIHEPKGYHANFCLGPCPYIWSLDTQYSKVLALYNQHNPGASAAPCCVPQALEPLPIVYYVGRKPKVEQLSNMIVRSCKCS
# How it was run: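 SBE luciferase reporter HEK293 cells in 0.5% FBS medium, preincubated 20 min with peptide, then stimulated 18 h with 0.13 nM recombinant human TGF-β1. Luminescence read; inhibition scaled with maximal TGF-β signal as 0% and unstimulated as 100%.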
# recombinant human TGF-β1 [2] = biological target: T2, recombinant human TGF-β1; assay: SPR intermolecular interaction test, TGF-β1 immobilized on CM3 sensor chip (Biacore T200); format: binding; conditions: Single Cycle Kinetics, human TGF-β1
# Method: In this Example, (1) the activity of binding to TGF-β for various peptides consisting of the amino acid sequences set forth in SEQ ID NOs: 2-33 synthesized in Examples 1 to 5 and 7 was evaluated. (2) The activity and selectivity of binding of the peptide consisting of the amino acid sequence set forth in SEQ ID NO: 13 synthesized in Example 2 against two isoforms of TGF-β (TGF-β1 and β2) were checked. For this purpose, the intermolecular interaction of each peptide against TGF-β was tested by surface plasmon resonance (SPR) in the method described below. Specific test methods are described below.
# A CM3 sensor chip (Global Life Science Technologies Japan Co., Ltd.) was inserted into a BiacoreT200 (Global Life Science Technologies Japan Co., Ltd.). Three priming runs were performed using running buffer: HBS-EP+ (Global Life Science Technologies Japan Co., Ltd.). The system was then equilibrated at a flow rate of 30 μL/min.
# Subsequently, 50 μL of 60 mM EDC solution (Global Life Science Technologies Japan Co., Ltd.) and 50 μL of 650 mM NHS solution (Global Life Science Technologies Japan Co., Ltd.) were mixed. Next, the reaction was carried out at a flow rate of 10 μL/min for 420 seconds. Then, 150 μL of 0.2 μM TGF-β solution diluted in 10 mM acetic acid solution (pH 5.0) was prepared and reacted at a flow rate of 10 μL/min for 420 seconds to immobilize TGF-β on the CM3 sensor chip. TGF-β was human-derived TGF-β1 or β2 (recombinant human TGF-β1, 2) and was obtained from R&D systems. After immobilization, capping was performed by reacting with 1.0 M ethanolamine aqueous solution (Global Life Science Technologies Japan Co., Ltd.) at a flow rate of […] for 420 seconds.
# A liquid prepared by dissolving each peptide at 10 mM in DMSO solution was diluted with running buffer to prepare a peptide-dissolved solution at a final concentration of 10 μM. Subsequently, 50 nM, 25 nM, 12.5 nM, 5 nM, and 2.5 nM peptide solutions were prepared. Using the above samples, the kinetics of each peptide against TGF-β was obtained by SPR measurement.
# The kinetics evaluation model was Single Cycle Kinetics, and curve fitting was performed using Biacore T200 Evaluation Software Version 3.0 (Global Life Science Technologies Japan Co., Ltd.). The binding of various peptides to TGF-β was evaluated by performing least-squares curve fitting on the obtained sensorgram to calculate the KD value.
# [3] = biological target: T3, recombinant human TGF-β1 (R&D systems) (human, UniProt P01137 279-390); assay: cell-based or functional assay
# T3 sequence (P01137 279-390 limits assumed): as above
# [4] = biological target: T4, recombinant human TGF-β2 (R&D systems) (human, UniProt P61812 303-414); assay: cell-based or functional assay
# T4 sequence (looked up): T1 sequence (P61812 303-414 limits assumed)
# [5] = biological target: T3, recombinant human TGF-β1 (R&D systems); assay: cell-based or functional assay; remark: listed apart in the source
# [6] = biological target: T4, recombinant human TGF-β2 (R&D systems); assay: SPR, TGF-β2 immobilised, single cycle kinetics; target TGF-β2, not TGF-β1
# [7] = biological target: T3, recombinant human TGF-β1 (R&D systems); assay: cell-based or functional assay; remark: listed apart in the source
molecule,measurement,setting,value
CC(C)[C@@H]1NC(=O)CN(CCc2ccccc2)C(=O)[C@H](CC(=O)O)NC(=O)[C@H](CC(=O)O)NC(=O)[C@H](Cc2ccncc2)NC(=O)[C@H](C(C)C)NC(=O)[C@H](CC(N)=O)NC(=O)[C@H](C(C)C)NC(=O)[C@H](C(C)C)NC(=O)[C@H](Cc2cccc3ccccc23)NC(=O)[C@H](Cc2ccccc2)NC(=O)CSC[C@@H](C(=O)NCC(N)=O)NC(=O)[C@H](CCCCNC(=O)N2CCN(CC(=O)O)CC2)NC(=O)[C@H](Cc2c[nH]cn2)NC(=O)[C@H](Cc2ccc(O)cc2)NC(=O)[C@H](Cc2cccc3ccccc23)NC1=O [TGFb1_012] ({CH2CO}-F[1Nal]VVNV[4Pal]DD[Gly(NCH2CH2Ph)]V[1Nal]YHK([CO-Piperazinyl(4-CH2COOH)])CG-NH2; thioether N-16),inhibitory activity against TGF-β2 (in words),recombinant human TGF-β2,inhibits not only TGF-β1 but also TGF-β2
same,TGF-β1 antagonist / inhibitory activity (in words),"recombinant human TGF-β1 [1]; SBE reporter assay, FIG. 1 and Tables 2 and 3",inhibits not only TGF-β1 but also TGF-β2
same,inhibition at 62 pM,"recombinant human TGF-β1 [1]; peptide 0.062 nM, TGF-β1 0.13 nM, 18 hours",4.18%
same,inhibition at 75 pM,"recombinant human TGF-β1 [1]; peptide 0.075 nM, TGF-β1 0.13 nM, 18 hours",10.1%
same,inhibition at 0.000185 µM,"recombinant human TGF-β1 [1]; peptide 0.185 nM, TGF-β1 0.13 nM, 18 hours",19.8%
same,inhibition at 0.00056 µM,"recombinant human TGF-β1 [1]; peptide 0.56 nM, TGF-β1 0.13 nM, 18 hours",48.4%
same,inhibition at 0.00075 µM,"recombinant human TGF-β1 [1]; peptide 0.75 nM, TGF-β1 0.13 nM, 18 hours",65.2%
same,inhibition at 0.0017 µM,"recombinant human TGF-β1 [1]; peptide 1.7 nM, TGF-β1 0.13 nM, 18 hours",80.9%
same,inhibition at 0.005 µM,"recombinant human TGF-β1 [1]; peptide 5.0 nM, TGF-β1 0.13 nM, 18 hours",94.4%
same,inhibition at 0.0075 µM,"recombinant human TGF-β1 [1]; peptide 7.5 nM, TGF-β1 0.13 nM, 18 hours",96%
same,inhibition at 0.015 µM,"recombinant human TGF-β1 [1]; peptide 15.0 nM, TGF-β1 0.13 nM, 18 hours",98.7%
same,inhibition at 0.075 µM,"recombinant human TGF-β1 [1]; peptide 75.0 nM, TGF-β1 0.13 nM, 18 hours",99.5%
same,Kd,recombinant human TGF-β1 [2],0.86 nM
B1,"SBE reporter % inhibition, peptide 0.075 nM",[3],10.1%
same,"SBE reporter % inhibition, peptide 0.75 nM",[3],65.2%
same,"SBE reporter % inhibition, peptide 7.5 nM",[3],96%
same,"SBE reporter % inhibition, peptide 75.0 nM",[3],99.5%
same,IC50 (read off the curve) (SBE reporter assay in SBE reporter-HEK293 cells; TGF-β2 at 0.13 nM),[4],~6 nM
same,IC50 (read off the curve) (SBE reporter assay in SBE reporter-HEK293 cells; TGF-β1 at 0.13 nM),[5],~0.7 nM
same,Kd,[6],2 nM
same,"SBE reporter % inhibition, peptide 0.062 nM",[7],4.18%
same,"SBE reporter % inhibition, peptide 0.185 nM",[7],19.8%
same,"SBE reporter % inhibition, peptide 0.56 nM",[7],48.4%
same,"SBE reporter % inhibition, peptide 1.7 nM",[7],80.9%
same,"SBE reporter % inhibition, peptide 5.0 nM",[7],94.4%
same,"SBE reporter % inhibition, peptide 15.0 nM",[7],98.7%
